From ChEMBL document CHEMBL5346961, “Discovery and Evaluation of 3-Quinoxalin Urea Derivatives as Potent, Selective, and Orally Available ATM Inhibitors Combined with Chemotherapy for the Treatment of Cancer via Goal-Oriented Molecule Generation and Virtual Screening” (J Med Chem, 2023)
Activity calls are given as the source filed them. The calls are words filed in the database; no cut-off is given here.

How the values were obtained:
[1] = AUC (0 to t) in Balb/C mouse at 10 mg/kg,iv measured upto 48 hrs by LC-MS/MS analysis; type: ADME, organism-based; parameters: time < 48 hrs, dose 10 mg/kg, route iv; conditions: in vivo
[2] = Tmax in Balb/C mouse at 10 mg/kg,po measured upto 48 hrs by LC-MS/MS analysis; type: ADME, organism-based; conditions: in vivo
[3] = Clearance in Balb/C mouse at 10 mg/kg,iv measured upto 48 hrs by LC-MS/MS analysis; type: ADME, organism-based; conditions: in vivo
HCT-116 [4] = assay: Induction of apoptosis in human HCT-116 cells assessed as viable cells at 4 uM measured after 2 days by AnnexinV-FITC/PI staining based analysis (reference value: 72.8%); type: functional; conditions: HCT-116, 48 h, time 2 day, read-out: Activity
HCT-116 [5] = assay: Induction of cell cycle arrest in human HCT-116 cells at 1 to 4 uM measured after 48 hrs by propidium iodide staining based flow cytometry analysis; type: functional; conditions: dose 1-4 µM
[6] = Toxicity in BALB/c nude mouse assessed as reduction in body weight at 20 to 40 mg/kg, po administered once daily for 3 days weekly after irinotecan post treatment for 21 days in presence of irinotecan relative to control; type: organism-based; parameters: scale not given: the % may be the effect or the level left; conditions: in vivo, 504 h, dose 20-40 mg/kg, time 21 day
HCT-116 [7] = assay: Induction of DNA damage in human HCT-116 cells assessed as reduction in ATM phosphorylation at S1981 residue at 0.5 to 2 uM measured after 4 hrs by Western blot analysis; type: functional, cell-based; conditions: dose 0.5-2 µM
[8] = Volume of distribution at steady state in Balb/C mouse at 10 mg/kg,iv measured upto 48 hrs by LC-MS/MS analysis; type: ADME, organism-based; conditions: in vivo, read-out: Vdss
SW-620 [9] = assay: Antitumor activity against human SW620 cells xenografted in BALB/c nude mouse model assessed as tumor growth inhibition at 40 mg/kg, po administered once daily for 3 days weekly for 21 days by caliper method; type: functional, organism-based; conditions: time 21.0 day
HCT-116 [10] = assay: Induction of apoptosis in human HCT-116 cells assessed as early apoptotic cells at 1 uM measured after 2 days by AnnexinV-FITC/PI staining based analysis (reference value: 14.4%); type: functional; conditions: time 2 day
SW-620 [11] = assay: Synergistic antiproliferative activity against human SW620 cells assessed as fold increase in irinotecan IC50 at 200 nM measured after 6 days by MTT assay; type: functional; conditions: time 6 day
HCT-116 [12] = assay: Induction of apoptosis in human HCT-116 cells assessed as viable cells at 1 uM measured after 2 days by AnnexinV-FITC/PI staining based analysis (reference value: 72.8%); type: functional; conditions: HCT-116, 48 h, time 2 day, read-out: Activity
[13] = Cmax in Balb/C mouse at 10 mg/kg,iv measured upto 48 hrs by LC-MS/MS analysis; type: ADME, organism-based; parameters: time < 48 hrs, dose 10 mg/kg, route iv; conditions: in vivo
HCT-116 [14] = assay: Antiproliferative activity against human HCT-116 cells assessed as cell survival at 1 uM incubated for 6 days by MTT assay relative to control; type: functional; conditions: HCT-116, 144 h, time 6 day, read-out: Survival
[15] = Cmax in Balb/C mouse at 10 mg/kg,po measured upto 48 hrs by LC-MS/MS analysis; type: ADME, organism-based; parameters: dose 10 mg/kg, time < 48 hrs, route po; conditions: in vivo
MCF7 [16] = assay: Synergistic antiproliferative activity against human MCF7 cells assessed as fold increase in irinotecan IC50 at 200 nM measured after 6 days by MTT assay; type: functional; conditions: time 6 day
HCT-116 [17] = assay: Induction of apoptosis in human HCT-116 cells assessed as late apoptotic cells at 2 uM measured after 2 days by AnnexinV-FITC/PI staining based analysis (reference value: 12.2%); type: functional; conditions: time 2 day
[18] = target: DNA-dependent protein kinase catalytic subunit (Homo sapiens, UniProt P78527); assay: Inhibition of DNA-PK (unknown origin) at 1 uM in presence of [gamma33P-ATP] by scintillation counting method relative to control
DNA-dependent protein kinase catalytic subunit, sequence (P78527 whole entry): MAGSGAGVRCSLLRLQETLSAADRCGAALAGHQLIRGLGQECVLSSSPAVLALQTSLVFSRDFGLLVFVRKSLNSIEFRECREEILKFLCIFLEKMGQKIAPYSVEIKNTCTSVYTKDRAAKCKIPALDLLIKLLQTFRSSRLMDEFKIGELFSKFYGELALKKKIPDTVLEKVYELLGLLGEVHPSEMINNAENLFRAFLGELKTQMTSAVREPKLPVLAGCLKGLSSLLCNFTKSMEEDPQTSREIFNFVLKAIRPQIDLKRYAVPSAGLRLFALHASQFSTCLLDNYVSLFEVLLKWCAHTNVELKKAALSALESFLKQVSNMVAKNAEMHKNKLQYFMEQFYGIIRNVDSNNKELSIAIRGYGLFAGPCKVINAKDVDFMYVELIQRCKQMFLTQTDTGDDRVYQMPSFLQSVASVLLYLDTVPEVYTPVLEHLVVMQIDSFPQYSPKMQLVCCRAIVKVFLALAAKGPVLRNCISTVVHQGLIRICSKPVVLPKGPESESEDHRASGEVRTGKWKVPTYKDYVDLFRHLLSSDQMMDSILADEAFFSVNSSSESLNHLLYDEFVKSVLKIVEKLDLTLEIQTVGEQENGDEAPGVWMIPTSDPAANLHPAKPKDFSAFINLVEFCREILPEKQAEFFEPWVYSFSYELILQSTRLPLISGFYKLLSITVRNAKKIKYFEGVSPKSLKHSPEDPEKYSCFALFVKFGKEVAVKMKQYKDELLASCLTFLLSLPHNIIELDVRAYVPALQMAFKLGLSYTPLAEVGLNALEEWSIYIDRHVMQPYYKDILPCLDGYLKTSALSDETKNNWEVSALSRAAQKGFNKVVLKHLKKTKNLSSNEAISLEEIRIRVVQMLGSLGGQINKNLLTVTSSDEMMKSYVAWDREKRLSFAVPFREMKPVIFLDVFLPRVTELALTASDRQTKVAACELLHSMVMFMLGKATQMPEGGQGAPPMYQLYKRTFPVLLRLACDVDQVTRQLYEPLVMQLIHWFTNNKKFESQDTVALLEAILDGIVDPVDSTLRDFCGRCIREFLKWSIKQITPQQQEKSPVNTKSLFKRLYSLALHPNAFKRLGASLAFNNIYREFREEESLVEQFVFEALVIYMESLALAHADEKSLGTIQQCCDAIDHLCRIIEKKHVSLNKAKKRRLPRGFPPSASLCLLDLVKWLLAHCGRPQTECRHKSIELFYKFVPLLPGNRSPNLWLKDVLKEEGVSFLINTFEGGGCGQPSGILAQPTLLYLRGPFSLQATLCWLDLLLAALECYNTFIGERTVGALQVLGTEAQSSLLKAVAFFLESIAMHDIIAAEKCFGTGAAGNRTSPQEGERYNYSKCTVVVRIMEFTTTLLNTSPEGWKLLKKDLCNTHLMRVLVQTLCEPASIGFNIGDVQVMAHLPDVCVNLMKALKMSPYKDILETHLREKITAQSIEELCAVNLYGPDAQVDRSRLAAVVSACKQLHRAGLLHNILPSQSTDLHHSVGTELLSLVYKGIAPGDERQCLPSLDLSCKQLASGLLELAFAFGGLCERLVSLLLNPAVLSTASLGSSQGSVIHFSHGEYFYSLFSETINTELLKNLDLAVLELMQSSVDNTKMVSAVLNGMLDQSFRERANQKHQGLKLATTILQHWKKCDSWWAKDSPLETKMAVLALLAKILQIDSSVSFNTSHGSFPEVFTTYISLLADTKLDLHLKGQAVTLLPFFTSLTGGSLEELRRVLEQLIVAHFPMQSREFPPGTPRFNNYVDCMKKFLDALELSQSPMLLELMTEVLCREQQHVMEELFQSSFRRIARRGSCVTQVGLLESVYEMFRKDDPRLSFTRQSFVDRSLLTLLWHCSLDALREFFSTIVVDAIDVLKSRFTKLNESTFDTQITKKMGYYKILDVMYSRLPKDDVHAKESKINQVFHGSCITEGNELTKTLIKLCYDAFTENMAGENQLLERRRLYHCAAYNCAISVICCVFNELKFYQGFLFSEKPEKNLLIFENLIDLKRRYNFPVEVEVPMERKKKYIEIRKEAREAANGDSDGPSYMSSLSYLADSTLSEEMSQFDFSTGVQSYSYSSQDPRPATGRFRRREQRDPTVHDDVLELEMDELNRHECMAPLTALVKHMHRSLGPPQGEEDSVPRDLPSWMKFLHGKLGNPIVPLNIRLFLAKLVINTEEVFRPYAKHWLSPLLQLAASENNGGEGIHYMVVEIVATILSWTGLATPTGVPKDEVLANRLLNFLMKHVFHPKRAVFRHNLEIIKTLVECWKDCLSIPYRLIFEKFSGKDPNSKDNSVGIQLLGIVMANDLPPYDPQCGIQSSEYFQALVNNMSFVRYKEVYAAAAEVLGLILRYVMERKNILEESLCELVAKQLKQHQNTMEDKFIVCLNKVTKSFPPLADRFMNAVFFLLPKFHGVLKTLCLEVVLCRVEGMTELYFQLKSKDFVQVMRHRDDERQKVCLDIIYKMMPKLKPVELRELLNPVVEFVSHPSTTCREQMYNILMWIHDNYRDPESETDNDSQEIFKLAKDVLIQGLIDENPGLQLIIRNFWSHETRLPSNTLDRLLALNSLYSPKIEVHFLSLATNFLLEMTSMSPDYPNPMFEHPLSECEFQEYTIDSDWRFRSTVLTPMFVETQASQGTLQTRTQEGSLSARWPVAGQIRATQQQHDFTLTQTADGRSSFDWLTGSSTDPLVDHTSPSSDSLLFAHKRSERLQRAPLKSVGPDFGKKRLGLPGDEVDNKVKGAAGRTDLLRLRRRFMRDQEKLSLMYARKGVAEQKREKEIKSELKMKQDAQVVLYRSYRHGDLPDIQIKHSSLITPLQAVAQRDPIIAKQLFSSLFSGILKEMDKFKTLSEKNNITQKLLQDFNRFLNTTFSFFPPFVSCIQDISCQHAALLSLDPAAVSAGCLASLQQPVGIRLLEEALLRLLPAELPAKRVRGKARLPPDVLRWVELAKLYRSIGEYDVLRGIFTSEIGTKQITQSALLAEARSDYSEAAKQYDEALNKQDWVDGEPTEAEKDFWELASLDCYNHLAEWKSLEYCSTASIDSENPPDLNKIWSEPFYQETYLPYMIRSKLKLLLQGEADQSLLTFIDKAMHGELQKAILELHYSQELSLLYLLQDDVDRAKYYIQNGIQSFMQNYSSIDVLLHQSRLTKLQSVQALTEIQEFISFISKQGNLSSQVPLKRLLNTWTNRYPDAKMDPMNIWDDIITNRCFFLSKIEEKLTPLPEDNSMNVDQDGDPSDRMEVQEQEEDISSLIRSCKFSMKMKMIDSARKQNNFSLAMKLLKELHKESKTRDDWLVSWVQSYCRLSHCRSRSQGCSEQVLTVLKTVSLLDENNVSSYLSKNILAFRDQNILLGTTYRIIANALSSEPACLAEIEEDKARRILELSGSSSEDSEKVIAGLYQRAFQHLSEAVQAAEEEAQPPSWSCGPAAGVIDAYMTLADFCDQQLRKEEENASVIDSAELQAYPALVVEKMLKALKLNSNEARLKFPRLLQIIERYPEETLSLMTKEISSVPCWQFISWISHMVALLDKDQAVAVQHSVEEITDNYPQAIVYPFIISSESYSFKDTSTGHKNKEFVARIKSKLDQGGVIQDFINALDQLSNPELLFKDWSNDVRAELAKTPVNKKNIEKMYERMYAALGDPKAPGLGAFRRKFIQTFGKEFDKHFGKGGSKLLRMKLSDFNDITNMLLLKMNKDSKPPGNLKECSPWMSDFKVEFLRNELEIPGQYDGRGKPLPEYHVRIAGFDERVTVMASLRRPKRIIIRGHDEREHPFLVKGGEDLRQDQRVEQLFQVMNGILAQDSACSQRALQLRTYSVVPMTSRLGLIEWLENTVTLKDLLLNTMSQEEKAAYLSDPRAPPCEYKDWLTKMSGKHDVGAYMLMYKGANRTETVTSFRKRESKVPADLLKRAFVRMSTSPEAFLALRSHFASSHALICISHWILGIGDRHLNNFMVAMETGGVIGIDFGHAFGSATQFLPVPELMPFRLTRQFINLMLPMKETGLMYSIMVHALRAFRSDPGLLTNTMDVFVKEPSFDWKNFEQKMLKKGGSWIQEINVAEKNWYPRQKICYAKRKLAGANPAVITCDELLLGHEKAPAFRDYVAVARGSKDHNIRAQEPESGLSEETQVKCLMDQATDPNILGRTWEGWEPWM

SW-620 [19] = assay: Antitumor activity against human SW620 cells xenografted in BALB/c nude mouse model assessed as tumor growth inhibition administered orally once daily for 3 days weekly after irinotecan post treatment for 21 days by caliper method; type: functional, cell-based; conditions: dose 20-40 mg/kg, route po, time 21.0 day
HCT-116 [20] = assay: Inhibition of colony formation in human HCT-116 cells at 0.01 uM preincubated for 1 hr followed by exposure to 2 Gy gamma irradiation and measured after 1 week by crystal violet staining based […] assay relative to control; type: functional; conditions: HCT-116, light or radiation study, time 169 hrs
[21] = Efflux ratio of apparent permeability in human Caco-2 cells; type: ADME, cell-based
HCT-116 [22] = assay: Antiproliferative activity against human HCT-116 cells assessed as reduction in cell viability incubated for 6 days by MTT assay; type: functional, cell-based; conditions: HCT-116, 144 h
MCF7 [23] = assay: Antiproliferative activity against human MCF7 cells assessed as reduction in cell viability incubated for 6 days by MTT assay; type: functional, cell-based; conditions: MCF7, 144 h
HCT-116 [24] = assay: Induction of apoptosis in human HCT-116 cells assessed as late apoptotic cells at 2 uM measured after 2 days in presence of irinotecan by AnnexinV-FITC/PI staining based analysis (reference value: 12.2%); type: functional; conditions: time 2 day
HCT-116 [25] = assay: Induction of apoptosis in human HCT-116 cells assessed as early apoptotic cells at 1 uM measured after 2 days in presence of irinotecan by AnnexinV-FITC/PI staining based analysis (reference value: 14.4%); type: functional; conditions: time 2 day
HCT-116 [26] = assay: Inhibition of colony formation in human HCT-116 cells assessed as assessed as fold change in IC50 in presence of ionizing radiation; type: functional
[27] = target: Serine-protein kinase ATM (Homo sapiens, UniProt Q13315); assay: Inhibition of ATM (unknown origin) at 1 uM in presence of [gamma33P-ATP] by scintillation counting method relative to control
[28] = Volume of distribution at steady state in Balb/C mouse at 10 mg/kg,po measured upto 48 hrs by LC-MS/MS analysis; type: ADME, organism-based; conditions: in vivo
HCT-116 [29] = assay: Induction of apoptosis in human HCT-116 cells assessed as viable cells at 2 uM measured after 2 days in presence of irinotecan by AnnexinV-FITC/PI staining based analysis (reference value: 72.8%); type: functional; conditions: HCT-116, 48 h, time 2 day, read-out: Activity
SW-620 [30] = assay: Antitumor activity against human SW620 cells xenografted in BALB/c nude mouse model assessed as tumor growth inhibition at 20 mg/kg, po administered once daily for 3 days weekly after irinotecan post treatment for 21 days by caliper method relative to control; type: functional; conditions: SW-620, 504 h, time 21 day, read-out: TGI
[31] = Half life in Balb/C mouse at 10 mg/kg,iv measured upto 48 hrs by LC-MS/MS analysis; type: ADME, organism-based; conditions: in vivo
[32] = Tmax in Balb/C mouse at 10 mg/kg,iv measured upto 48 hrs by LC-MS/MS analysis; type: ADME, organism-based; conditions: in vivo
HCT-116 [33] = assay: Induction of apoptosis in human HCT-116 cells assessed as necrotic cells at 1 uM measured after 2 days by AnnexinV-FITC/PI staining based analysis (reference value: 0.64%); type: functional; conditions: time 2 day
[34] = Toxicity in BALB/c nude mouse assessed as drug tolerance at 20 to 40 mg/kg, po administered once daily for 3 days weekly after irinotecan post treatment for 21 days in presence of irinotecan; type: organism-based; conditions: in vivo, 504 h, dose 20-40 mg/kg, time 21 day
SW-620 [35] = assay: Antitumor activity against human SW620 cells xenografted in BALB/c nude mouse model assessed as tumor growth inhibition at 40 mg/kg, po administered once daily for 3 days weekly after irinotecan post treatment for 21 days by caliper method relative to control; type: functional; conditions: SW-620, 504 h, time 21 day, read-out: TGI

`CC(C)NC(=O)N(C)c1cnc2ccc(-c3ccc(OCCCN4CCCCC4)nc3)cc2n1` gave an AUCt [1] of 13027.01 ng·h/mL, a Tmax [2] of 19.8 min and a clearance [3] of 13 mL/min/kg. For the same molecule, the viability at 4 µM (HCT-116 [4]) was 68.3%, the Activity (HCT-116 [5]) was “inactive” and the Activity [6] was < 12%. For the same molecule, the Activity (HCT-116 [7]) was “Active”, the Vd [8] was 5.93 L/kg and the Activity (SW-620 [9]) was “inactive”. For the same molecule, the Activity (HCT-116 [10]) was 18.3%, the “fold change (FC)” value (SW-620 [11]) was 4.5 and the viability at 1 µM (HCT-116 [12]) was 68%. The Cmax [13] was 6790 ng/mL, the viability at 1 µM (HCT-116 [14]) was > 83% and the Cmax [15] was 10200 ng/mL. For the same molecule, the “fold change (FC)” value (MCF7 [16]) was 15, the Activity (HCT-116 [17]) was 14.2% and the inhibition [18] was < 50%. For the same molecule, the Activity (SW-620 [19]) was “Dose-Dependent Effect”, the inhibition at 0.01 µM (HCT-116 [20]) was 94.1% and the efflux ratio [21] was 2.37. For the same molecule, the IC50 (HCT-116 [22]) was > 9 µM, the IC50 (MCF7 [23]) was > 9 µM and the Activity (HCT-116 [24]) was 33.1%. For the same molecule, the Activity (HCT-116 [25]) was 49.9%, the “fold change (FC)” value (HCT-116 [26]) was 750 and the inhibition [27] was < 50%. For the same molecule, the Vdss [28] was 3.52 L/kg, the viability at 2 µM (HCT-116 [29]) was 14% and the inhibition in vivo at 20 mg/kg (SW-620 [30]) was 77.2%. The t1/2 [31] was 317 min, the Tmax [32] was 4.8 min and the Activity (HCT-116 [33]) was 1.01%. The Activity [34] was “Toxic” and the inhibition in vivo at 40 mg/kg (SW-620 [35]) was 85.3%.
